Reference: US20250059182A1, “SOS1 INHIBITORS” (Mirati Therapeutics, Inc., priority 2021, published 2025)

Legend:
[1] = test system: pERK in MKN1 cells; assay: pERK inhibition, In-Cell Western (LI-COR Odyssey), MKN1 cells; type: cell-based; details: Homo sapiens, MKN-1, Table B; MKN1 or H358 cells (table does not say which); 0.5-1 hour incubation; read-out: IC50 (nM), pERK inhibition
How it was run: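 IC50 was fitted from % pERK inhibition, calculated as the GAPDH-normalised pERK signal of each well divided by the vehicle mean. Signal was imaged at 700 and 800 nm after fixation, methanol permeabilisation and dual antibody staining. Before fixation, MKN1 cells had received compound for about 0.5–1 h at 37 °C, top concentration 10 µM, nine 3-fold dilutions.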

[2] = molecular target: T1, recombinant human SOS1 polypeptide (amino acids 560-1049) (Homo sapiens, UniProt Q07889); assay: HTRF displacement assay: inhibition of labeled tracer binding to SOS1; details: Table A, Morrison equation for competitive binding
T1 construct: corresponding to amino acids 560-1049, expressed in E. Coli; made in house; host or cells: E. coli
T1 sequence (Q07889 560-1049): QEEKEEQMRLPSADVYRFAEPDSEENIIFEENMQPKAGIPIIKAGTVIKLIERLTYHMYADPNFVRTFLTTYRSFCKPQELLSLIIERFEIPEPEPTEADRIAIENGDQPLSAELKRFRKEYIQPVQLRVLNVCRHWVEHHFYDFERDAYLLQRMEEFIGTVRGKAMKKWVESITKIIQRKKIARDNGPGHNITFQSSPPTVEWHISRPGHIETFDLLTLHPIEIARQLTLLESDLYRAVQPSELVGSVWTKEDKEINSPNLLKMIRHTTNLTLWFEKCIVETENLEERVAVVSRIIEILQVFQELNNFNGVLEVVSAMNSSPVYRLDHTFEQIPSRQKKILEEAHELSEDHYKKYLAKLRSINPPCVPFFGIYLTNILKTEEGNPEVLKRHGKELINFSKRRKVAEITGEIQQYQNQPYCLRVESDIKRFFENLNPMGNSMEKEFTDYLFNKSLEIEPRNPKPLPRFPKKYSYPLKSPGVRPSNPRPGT
Experimental: The ability of a compound of Formula (I) to bind to SOS1 was measured using a HTRF displacement assay. […] After a 1-hour incubation at room temperature, the HTRF signal was measured using Clairostar plate reader (BMG Labtech) according to the manufacturer's instructions. Excitation filter EX-TR was used, and emission 1 was detected at 650-610 nm and emission 2 detected at 620-610 nm. The HTRF ratio was calculated using the formula: [emission 1/emission 2]*10000.
Background signals were calculated from well with a 10 μM inhibitor, known to inhibit 100% at that concentration. The background subtracted signals were converted to % binding relative to DMSO controls. Data were analyzed using XLFIT software (IDBS) using a Morrison equation for competitive binding and Ki's were generated compound of Formula (I).

| Structure (SMILES) | IC50 [1] [nM] | Ki [2] [nM] |
| --- | --- | --- |
| Cc1nnc(N[C@H](C)c2cccc(C(F)(F)F)c2F)c2cc(N3CC4(CNC4)C3)ncc12 [Example 1-87, (R)-N-(1-(2-fluoro-3-(trifluoromethyl)phenyl)ethyl)-4-methyl-7-(2,6-diazaspiro[3.3]heptan-2-yl)pyrido[3,4-d]pyridazin-1-amine] | 273 | 0.524 |
| CCN1CC[C@@H](N(C)c2cc3c(N[C@H](C)c4cccc(C#N)c4C)nnc(C)c3cn2)C1 [Example 1-88, 3-((R)-1-((7-(((R)-1-ethylpyrrolidin-3-yl)(methyl)amino)-4-methylpyrido[3,4-d]pyridazin-1-yl)amino)ethyl)-2-methylbenzonitrile] | 35.5 | 1.37 |
| CCN1CC[C@H](N(C)c2cc3c(N[C@H](C)c4cccc(C#N)c4C)nnc(C)c3cn2)C1 [Example 1-89, 3-((R)-1-((7-(((S)-1-ethylpyrrolidin-3-yl)(methyl)amino)-4-methylpyrido[3,4-d]pyridazin-1-yl)amino)ethyl)-2-methylbenzonitrile] | 32.6 | 1.71 |
| Cc1nnc(N[C@H](C)c2cccc(C(F)(F)F)c2F)c2cc(N(C)[C@@H]3CCCN(C)C3)ncc12 [Example 1-90, N^1-((R)-1-(2-fluoro-3-(trifluoromethyl)phenyl)ethyl)-N^7,4-dimethyl-N^7-((R)-1-methylpiperidin-3-yl)pyrido[3,4-d]pyridazine-1,7-diamine] | 102 | 0.453 |
| COCCN(C)c1cc2c(N[C@H](C)c3cccc(C#N)c3C)nnc(C)c2cn1 [Example 1-91, (R)-3-(1-((7-((2-methoxyethyl)(methyl)amino)-4-methylpyrido[3,4-d]pyridazin-1-yl)amino)ethyl)-2-methylbenzonitrile] | 225 | 6.07 |
| Cc1nnc(N[C@H](C)c2cc(N)cc(C(F)(F)F)c2F)c2cc(N3CC(C)(O)C3)ncc12 [Example 1-93, (R)-1-(1-((1-(5-amino-2-fluoro-3-(trifluoromethyl)phenyl)ethyl)amino)-4-methylpyrido[3,4-d]pyridazin-7-yl)-3-methylazetidin-3-ol] | 50.5 | 0.361 |
| Cc1nnc(N[C@H](C)c2cc(N)cc(C(F)(F)F)c2F)c2cc(N3CC4CC(C3)O4)ncc12 [Example 1-94, N-((R)-1-(5-amino-2-fluoro-3-(trifluoromethyl)phenyl)ethyl)-7-(6-oxa-3-azabicyclo[3.1.1]heptan-3-yl)-4-methylpyrido[3,4-d]pyridazin-1-amine] | 15.4 | 0.264 |
| Cc1nnc(N[C@H](C)c2cc(N)cc(C(F)(F)F)c2F)c2cc(N3CC4CC(C3)O4)ccc12 [Example 1-95, N-((R)-1-(5-amino-2-fluoro-3-(trifluoromethyl)phenyl)ethyl)-7-(6-oxa-3-azabicyclo[3.1.1]heptan-3-yl)-4-methylphthalazin-1-amine] | 19.8 | 0.31 |
| Cc1nnc(N[C@H](C)c2ccc(C#N)cc2F)c2cc(N3C[C@H]4C[C@@H]3CO4)ncc12 [Example 1-96, 4-((R)-1-((7-((1R,4R)-2-oxa-5-azabicyclo[2.2.1]heptan-5-yl)-4-methylpyrido[3,4-d]pyridazin-1-yl)amino)ethyl)-3-fluorobenzonitrile] | 255 | 19.1 |
| Cc1nnc(N[C@H](C)c2ccc(C#N)cc2F)c2cc(N3CCN4CCOC[C@@H]4C3)ncc12 [Example 1-97, 3-fluoro-4-((R)-1-((7-((S)-hexahydropyrazino[2,1-c][1,4]oxazin-8(1H)-yl)-4-methylpyrido[3,4-d]pyridazin-1-yl)amino)ethyl)benzonitrile] | 358 | 17.7 |
| Cc1nnc(N[C@H](C)c2cccc3c2OCC3(F)F)c2cc(N3CC4(CN(C)C4)C3)ncc12 [Example 1-99, (R)-N-(1-(3,3-difluoro-2,3-dihydrobenzofuran-7-yl)ethyl)-4-methyl-7-(6-methyl-2,6-diazaspiro[3.3]heptan-2-yl)pyrido[3,4-d]pyridazin-1-amine] | 19.1 | 0.357 |
| Cc1nnc(N[C@H](C)c2cccc3c2OCC3(F)F)c2cc(N3CCN(C)CC3)ncc12 [Example 1-100, (R)-N-(1-(3,3-difluoro-2,3-dihydrobenzofuran-7-yl)ethyl)-4-methyl-7-(4-methylpiperazin-1-yl)pyrido[3,4-d]pyridazin-1-amine] | 25.1 | 0.423 |
| CCN1CCN(c2cc3c(N[C@H](C)c4cccc5c4OCC5(F)F)nnc(C)c3cn2)CC1 [Example 1-101, (R)-N-(1-(3,3-difluoro-2,3-dihydrobenzofuran-7-yl)ethyl)-7-(4-ethylpiperazin-1-yl)-4-methylpyrido[3,4-d]pyridazin-1-amine] | 26.2 | 0.326 |
| Cc1c([C@@H](C)Nc2nnc(C)c3cnc(N4CCN(C)CC4)cc23)cc(N)nc1C(F)(F)F [Example 1-102, (R)-N-(1-(6-amino-3-methyl-2-(trifluoromethyl)pyridin-4-yl)ethyl)-4-methyl-7-(4-methylpiperazin-1-yl)pyrido[3,4-d]pyridazin-1-amine] | 37 | 2.18 |
| CCN(c1cc2c(N[C@H](C)c3cccc(C#N)c3C)nnc(C)c2cn1)[C@@H]1CCN(C)C1 [Example 1-103, 3-((R)-1-((7-(ethyl((R)-1-methylpyrrolidin-3-yl)amino)-4-methylpyrido[3,4-d]pyridazin-1-yl)amino)ethyl)-2-methylbenzonitrile] | 48.4 | 1.1 |
| Cc1c([C@@H](C)Nc2nnc(C)c3cnc(N4CCOCC4)cc23)cc(N)nc1C(F)(F)F [Example 1-105, (R)-N-(1-(6-amino-3-methyl-2-(trifluoromethyl)pyridin-4-yl)ethyl)-4-methyl-7-morpholinopyrido[3,4-d]pyridazin-1-amine] | 31.1 | 4.39 |
| Cc1c([C@@H](C)Nc2nnc(C)c3cnc(N4C[C@H]5C[C@@H]4CO5)cc23)cc(N)nc1C(F)(F)F [Example 1-106, N-((R)-1-(6-amino-3-methyl-2-(trifluoromethyl)pyridin-4-yl)ethyl)-7-((1R,4R)-2-oxa-5-azabicyclo[2.2.1]heptan-5-yl)-4-methylpyrido[3,4-d]pyridazin-1-amine] | 128 | 7.3 |
| Cc1c([C@@H](C)Nc2nnc(C)c3cnc(N4CC5(COC5)C4)cc23)cc(N)nc1C(F)(F)F [Example 1-107, (R)-N-(1-(6-amino-3-methyl-2-(trifluoromethyl)pyridin-4-yl)ethyl)-4-methyl-7-(2-oxa-6-azaspiro[3.3]heptan-6-yl)pyrido[3,4-d]pyridazin-1-amine] | 239 | 22.5 |
| Cc1nnc(N[C@H](C)c2cccc3c2OCC3(F)F)c2cc(N3CCOCC3)ncc12 [Example 1-108, (R)-N-(1-(3,3-difluoro-2,3-dihydrobenzofuran-7-yl)ethyl)-4-methyl-7-morpholinopyrido[3,4-d]pyridazin-1-amine] | 35.7 | 2.31 |
| Cc1nnc(N[C@H](C)c2cccc(C(C)(F)F)c2F)c2cc(N3CCN(C)CC3)ncc12 [Example 1-109, (R)-N-(1-(3-(1,1-difluoroethyl)-2-fluorophenyl)ethyl)-4-methyl-7-(4-methylpiperazin-1-yl)pyrido[3,4-d]pyridazin-1-amine] | 41.3 | 0.647 |
| Cc1c(C#N)cccc1[C@@H](C)Nc1nnc(C)c2cnc(N3CCS(=O)(=O)CC3)cc12 [Example 1-110, (R)-3-(1-((7-(1,1-dioxidothiomorpholino)-4-methylpyrido[3,4-d]pyridazin-1-yl)amino)ethyl)-2-methylbenzonitrile] | 240 | 3.36 |
| Cc1c([C@@H](C)Nc2nnc(C)c3ccc(N4CCOCC4)cc23)cc(N)nc1C(F)(F)F [Example 1-111, (R)-N-(1-(6-amino-3-methyl-2-(trifluoromethyl)pyridin-4-yl)ethyl)-4-methyl-7-morpholinophthalazin-1-amine] | 57.9 | 2.91 |
| Cc1c(C#N)cccc1[C@@H](C)Nc1nnc(C)c2cnc(N3CCN(C(=O)[C@H]4CCCN4C)CC3)cc12 [Example 2-1, 2-methyl-3-((R)-1-((4-methyl-7-(4-(methyl-D-prolyl)piperazin-1-yl)pyrido[3,4-d]pyridazin-1-yl)amino)ethyl)benzonitrile] | 551 | 0.458 |
| Cc1c(C#N)cccc1[C@@H](C)Nc1nnc(C)c2cnc(N3CCN(C(=O)[C@@H]4CCCN4C)CC3)cc12 [Example 2-2, 2-methyl-3-((R)-1-((4-methyl-7-(4-(methyl-L-prolyl)piperazin-1-yl)pyrido[3,4-d]pyridazin-1-yl)amino)ethyl)benzonitrile] | 456 | 0.845 |
| Cc1c(C#N)cccc1[C@@H](C)Nc1nnc(C)c2cnc(N3CCN(C(=O)[C@H]4CCCN4)CC3)cc12 [Example 2-3, 3-((R)-1-((7-(4-(D-prolyl)piperazin-1-yl)-4-methylpyrido[3,4-d]pyridazin-1-yl)amino)ethyl)-2-methylbenzonitrile] | 656 | 0.32 |
